This is an account of results in ChEMBL document CHEMBL1129505, “Time-dependent inactivation of aromatase by 6-alkylandrosta-1,4-diene-3,17-diones. Effects of length and configuration of 6-alkyl group” (J Med Chem, 1996).

The target in series [1] is T1, Aromatase (Homo sapiens, UniProt P11511).
T1 sequence (P11511 whole entry): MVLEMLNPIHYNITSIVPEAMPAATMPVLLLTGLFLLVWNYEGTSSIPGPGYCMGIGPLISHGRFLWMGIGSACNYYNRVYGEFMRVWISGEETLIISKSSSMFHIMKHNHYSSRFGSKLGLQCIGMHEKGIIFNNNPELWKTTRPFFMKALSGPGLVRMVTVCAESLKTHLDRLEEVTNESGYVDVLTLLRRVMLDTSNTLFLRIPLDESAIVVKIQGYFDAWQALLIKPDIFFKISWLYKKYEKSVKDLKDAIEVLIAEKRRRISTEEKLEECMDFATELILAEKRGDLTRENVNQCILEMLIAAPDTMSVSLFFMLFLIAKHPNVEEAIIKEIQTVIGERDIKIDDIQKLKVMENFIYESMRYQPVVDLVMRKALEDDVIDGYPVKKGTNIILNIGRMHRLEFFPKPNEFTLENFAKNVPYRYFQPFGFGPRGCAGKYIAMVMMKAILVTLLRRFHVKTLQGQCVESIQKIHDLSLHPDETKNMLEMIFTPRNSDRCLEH
The series is described as follows: In vitro inhibitory activity against Cytochrome P450 19A1 in human placental microsomes. The arrangement: species or system Placenta.

Series [2] addresses T1, Aromatase. The series is described as follows: Catalytic rate constant for time dependent inactivation of Cytochrome P450 19A1; NT= time-dependent inactivation not observed.
Series [3] addresses T1, Aromatase. The series is described as follows: Inactivation constant (Ki) for time-dependent inactivation of Cytochrome P450 19A1; NT= time-dependent inactivation not observed.
Series [4] addresses T1, Aromatase. The series is described as follows: Apparent inhibition constant (Ki) Cytochrome P450 19A1. As to conditions: read-out: Ki app.
Series [5] addresses T2, CYP19A1 (aromatase) (Homo sapiens, UniProt P11511).
T2 sequence (P11511 whole entry): T1 sequence (P11511 whole entry)
Kind of series: Catalytic rate constant for time dependent inactivation of Cytochrome P450 19A1.

Series [6] addresses T1, Aromatase. Kind of series: Inactivation constant (Ki) for time-dependent inactivation of Cytochrome P450 19A1.

The structures appear in SMILES notation.

The IC50 is the concentration needed to halve the response being measured. The low end stands for inhibition by little substance, the high end for a need for much substance. `CCCCCC[C@@H]1CC2C(CCC3(C)C(=O)CCC23)C2(C)C=CC(=O)C=C12` (stereo not given in full) came in with an IC50 in series [1] of 76 nM. In addition, the K inact result in series [2] is recorded as “Inactivation not observed”. In addition, the Ki entry in series [3] was “Inactivation not observed”; in series [4], 8 nM.
By kinact is commonly meant the maximal first-order rate at which the target is inactivated. On to `CCCCCC[C@H]1CC2C(CCC3(C)C(=O)CCC23)C2(C)C=CC(=O)C=C12` (stereo not given in full), for which, in series [1], the IC50 was determined as 280 nM. Further, the kinact in series [5] was 0.000833 s⁻¹. The Ki amounted to 650 nM in series [6] and 25 nM in series [4].
Regarding `CCCCC[C@H]1CC2C(CCC3(C)C(=O)CCC23)C2(C)C=CC(=O)C=C12` (stereo not given in full), in series [1], the IC50 was 140 nM. Moreover, in series [2], the K inact entry is given as “Inactivation not observed”. In addition, the values for the Ki result in series [3] and in series [4] were “Inactivation not observed” and 11 nM, respectively.
`CCCCCCC[C@H]1CC2C(CCC3(C)C(=O)CCC23)C2(C)C=CC(=O)C=C12` (stereo not given in full) had an IC50 in series [1] of 250 nM. Further, the K inact result in series [2] is on record as “Inactivation not observed”. Also, the Ki entry in series [3] was “Inactivation not observed”; in series [4] it was 20 nM.
Take `CCCCCCC[C@@H]1CC2C(CCC3(C)C(=O)CCC23)C2(C)C=CC(=O)C=C12` (stereo not given in full): 60 nM corresponded to half-maximal inhibition in series [1] (IC50). In addition, the K inact result in series [2] is listed as “Inactivation not observed”. For the same molecule, the values for the Ki result in series [3] and in series [4] were “Inactivation not observed” and 7.8 nM, respectively.
As to `C[C@H]1CC2C(CCC3(C)C(=O)CCC23)C2(C)C=CC(=O)C=C12` (stereo not given in full), the kinact in series [5] was 0.0008 s⁻¹.
Turning to `CCCCC[C@@H]1CC2C(CCC3(C)C(=O)CCC23)C2(C)C=CC(=O)C=C12` (stereo not given in full), 54 nM corresponded to half-maximal inhibition in series [1] (IC50). Also, the K inact entry in series [2] is reported as “Inactivation not observed”. The Ki entry is “Inactivation not observed” in series [3] and 5 nM in series [4].
In series [1], `CCC[C@@H]1CC2C(CCC3(C)C(=O)CCC23)C2(C)C=CC(=O)C=C12` (stereo not given in full) registered a concentration for half-maximal inhibition (IC50) of 60 nM. Further, the K inact entry in series [2] is “Inactivation not observed”. In addition, the Ki result in series [3] is “Inactivation not observed”; in series [4], 7 nM.
As to `CC[C@@H]1CC2C(CCC3(C)C(=O)CCC23)C2(C)C=CC(=O)C=C12` (stereo not given in full), the IC50 in series [1] turned out to be 54 nM. The K inact entry in series [2] is given as “Inactivation not observed”. For the same molecule, the Ki entry in series [3] was “Inactivation not observed”; in series [4], 4.7 nM.
On to `C[C@@H]1CC2C(CCC3(C)C(=O)CCC23)C2(C)C=CC(=O)C=C12` (stereo not given in full), for which, in series [5], the kinact is 0.00102 s⁻¹.
For `CCC[C@H]1CC2C(CCC3(C)C(=O)CCC23)C2(C)C=CC(=O)C=C12` (stereo not given in full), the IC50 in series [1] worked out at 270 nM. The kinact in series [5] is 0.000733 s⁻¹. The figures for the Ki in series [6] and in series [4] were 339 nM and 22 nM, respectively.
`CCCC[C@@H]1CC2C(CCC3(C)C(=O)CCC23)C2(C)C=CC(=O)C=C12` (stereo not given in full) came in with an IC50 in series [1] of 180 nM. Moreover, the K inact result in series [2] is recorded as “Inactivation not observed”. Also, the Ki entry in series [3] is “Inactivation not observed”; in series [4] it was 14 nM.
With `CC[C@H]1CC2C(CCC3(C)C(=O)CCC23)C2(C)C=CC(=O)C=C12` (stereo not given in full), the IC50 in series [1] is 250 nM. In addition, the kinact in series [5] is 0.00108 s⁻¹. Moreover, the Ki in series [6] stood at 196 nM; in series [4] it was 19 nM.
`CCCC[C@H]1CC2C(CCC3(C)C(=O)CCC23)C2(C)C=CC(=O)C=C12` (stereo not given in full) had an IC50 in series [1] of 200 nM. The kinact in series [5] is 0.000483 s⁻¹. In addition, the Ki stood at 571 nM in series [6] and 16 nM in series [4].
